Assay results taken from patent publication US20050152967A1, “Dynamic variable release” (PFab, LP, priority 2003, published 2005).

Columns and labels:
[1] = water and alcohol; cited from earlier work
[2] = in vitro dissolution (acid/base dissolution bath, USP apparatus, HPLC); type: physicochemical
Procedure: The amount of active dissolution over time, e.g., guaifenesin and/or phenylephrine in the tablets or capsules disclosed herein below may be tested as follows. Briefly, in vitro guaifenesin or phenylephrine release may be determined using an acid/base dissolution bath, e.g., a standard USP 23/NF Drug Release Apparatus. Dissolution vessels of a USP calibrated dissolution bath, equipped with shafts and paddles, are filled with 675 ml of 0.1N hydrochloric acid at 37.0 degrees Centigrade. The bath and vessels are maintained at a temperature of 37.0±0.5 degrees Centigrade throughout a standard 7 hour dissolution test. […] One tablet or capsule is dropped into each vessel.
At the testing intervals, e.g., 1 minute, 10, 10, 30, 45, 60 or 90 minutes, 2, 3, 4, 6, 7, 9 or 12 hour testing intervals, an aliquot, e.g., 5 mls of dissolution solution is withdrawn from each vessel, filtered (e.g., through a 10-22 micron polyethylene filter) and tested using an HPLC. To stop the dissolution a strong base may be added to the sample, e.g., 0.2M sodium phosphate tribasic to increase the pH of the solution to about 6.8. The percent dissolution is determined using HPLC.

[3] = accelerated stability of capsules (dissolution and assay over time); type: physicochemical
Description: The material was placed on accelerated stability.
Stability: Capsules were studied for stability.

release profile for gauifenesin ([2]; sustain releasing both actives)	potency on accelerated stability [3]	released immediately ([3]; capsules on accelerated stability) [%]	dissolution rate of phenylephrine ([2]; when combined with Gauifenesin DC)	SMILES	solubility [1]	release of phenylephrine ([2]; phenylephrine overcoated with immediate release gauifenesin)	release profile ([3]; capsules on accelerated stability, month to month)
poor release profile	stable potency	100		COc1ccccc1OCC(O)CO (stereo not shown) [Guaifenesin, 3(2-methoxyphenoxy)-1,2-propanediol]	soluble in water and alcohol		
			accelerated	CNC[C@@H](O)c1cccc(O)c1.Cl [Phenylephrine hydrochloride, (S)-3-hydroxy-α[(methylamino)methyl]benzenemethanol hydrochloride]		slowed the release of the phenylephrine to an unacceptable level	first order release profile consistent with an 8 hour product
